Results published in US20240261310A1, “APPLICATION OF ALGINATE OLIGOSACCHARIDES” (HAITANG (JIANGSU) BIOTECHNOLOGY COMPANY, LTD., priority 2021, published 2024).

Tests used:
Type in all cases: in vivo
[1] = tested on: rats with AKI induced by renal ischemia-reperfusion (I/R) injury; assay: Rat acute kidney injury (AKI) induced by ischemia-reperfusion (I/R); conditions: for level of serum creatinine / 24-hour urine output: Sprague Dawley rats, intragastric; for level of serum creatinine: 24 h after I/R; for mRNA levels of Kim-1 and NGAL in kidney tissues / inflammatory factors in kidney tissues (TLR4, p-NFκB/NFκB, pro-IL-1β/IL-1β): renal cortex; for mRNA levels of Kim-1 and NGAL in kidney tissues: 0.1 g/kg/day intragastric; for inflammatory factors in kidney tissues (TLR4, p-NFκB/NFκB, pro-IL-1β/IL-1β): western blotting, doses 0.01, 0.05, 0.1 g/kg/day, dose dependent
Source text: Ischemia-reperfusion induced kidney injury is a classical animal model that simulates the acute kidney injury caused by clinical hypoperfusion. With the rat ischemia-reperfusion model, the author of the invention administered the alginate oligosaccharides with a uniform degree of polymerization as prepared by Example 1-3 and a mixture thereof, and then carried out comparison with a blank group and a non-administrated model group to investigate the therapeutic effects of the several alginate oligosaccharides with a uniform degree of polymerization.
30 male Sprague Dawley rats (purchased from the Laboratory Animal Center of Sun Yat-sen University) of 220-250 grams were selected. Before treatment, the 24-hour urine output was collected and measured without abnormalities. The rats to be modeled were randomly divided into the following groups: a sham group, a model group, and three alginate disaccharide groups with the doses of 0.01 g/kg/day, 0.05 g/kg/day and 0.1 g/kg/day respectively (6 rats in each group). In the present invention, the alginate disaccharide is abbreviated as “AOS2”. Intragastric administration was adopted, and rats in the model group and the sham group were all fed by gavage with the same volume of normal saline. On the day of operation, the rats were anesthetized intraperitoneally with 3% pentobarbital sodium and subjected to routine skin disinfection. The abdomen was sectioned to expose the left and right kidneys. In the sham group, the kidneys were only examined, and then the incision was sutured layer by layer to end the operation. In the model group and the modeled administration group, large bulldog clamps were used for occlusion of the renal pedicles on both sides, then the kidneys were recovered in place, and the incision was covered with gauze and dropwise added with a small amount of normal saline for rehydration. After 45 minutes, the bulldog clamps on both sides were released, and the incision was sutured layer by layer to end the operation. After operation, the rats were placed on a heating pad at 37° C. to wait for resuscitation, and then placed back into metabolic cages, in which the weight, food intake, water intake and urine output of the rats were measured. The rats were routinely fed after operation and sacrificed 24 hours later for sampling. […] Then, the serum creatinine in the rats was determined by using the creatinine assay kit from Nanjing Jiancheng, with the results shown in FIG. 10. During sampling, the kidneys on both sides were isolated, the cortex and inner medulla of each kidney were isolated, and the cortex was stored in trizol. When in use, mRNAs in the cortex were extracted using the trizol method, and the mRNA expressions of AKI biomarkers (KIM-1 and NGAL) were detected. A tissue lysis buffer was added to homogenize the kidneys by ultrasound, the total protein was then extracted, and the inflammatory factors (p-NFκB/NFκB and pro-IL-1β/IL-1β) in the renal cortex tissues were detected by western blotting. The experimental data were statistically analyzed by one-way ANOVA.
With the same experimental method as that for the alginate disaccharides, the effect of alginate trisaccharides against the rat acute kidney injury induced by ischemia-reperfusion was investigated. In the present invention, the alginate trisaccharide is abbreviated as “AOS3”. The serum creatinine in the rats was determined by using the creatinine assay kit from Nanjing Jiancheng, with the results shown in FIG. 14. During sampling, the kidneys on both sides were isolated, the cortex and inner medulla of each kidney were isolated, and the cortex was stored in trizol. When in use, mRNAs in the cortex were extracted using the trizol method, and the mRNA expression of AKI biomarkers (KIM-1 and NGAL) was detected. […]

[2] = tested on: mice with AKI induced by endotoxin phosphorus lipopolysaccharides (LPS); assay: Mouse acute kidney injury induced by endotoxin phosphorus lipopolysaccharides (LPS); conditions: for level of serum creatinine: C57/B16 mice, LPS 15 mg/kg i.p., 24 h; for level of serum creatinine / gene expressions of inflammatory factors (IL-1β, IL-18, TNF-α, MCP-1) / mRNA levels of Kim-1 and NGAL in kidney tissues / protein expressions of renal inflammatory factors (TLR4, p-NFκB/NFκB, pro-IL-1β/IL-1β): 0.1 g/kg/day intragastric; for gene expressions of inflammatory factors (IL-1β, IL-18, TNF-α, MCP-1) / mRNA levels of Kim-1 and NGAL in kidney tissues / protein expressions of renal inflammatory factors (TLR4, p-NFκB/NFκB, pro-IL-1β/IL-1β): renal cortex, vs LPS group; for gene expressions of inflammatory factors (IL-1β, IL-18, TNF-α, MCP-1) / mRNA levels of Kim-1 and NGAL in kidney tissues: Qpcr; for protein expressions of renal inflammatory factors (TLR4, p-NFκB/NFκB, pro-IL-1β/IL-1β): western blotting
Source text: (§1) The kidney injury induced by treatment with endotoxin phosphorus lipopolysaccharides is a classical and standard animal model that simulates the acute kidney injury induced by clinical infection. With the mouse endotoxin phosphorus lipopolysaccharide model, we administered the alginate oligosaccharides with different uniform degrees of polymerization and a mixture thereof, and then compared with a blank group and a non-administrated model group to investigate the therapeutic effects of the individual alginate oligosaccharides with a uniform degree of polymerization.
24 male C57/B16 mice of 22-28 grams were selected. […] LPS was used for modeling to induce the occurrence of sepsis-associated acute kidney injury. During modeling, each model group was intraperitoneally injected with LPS at 15 mg/kg, and the control group was intraperitoneally injected with the same volume of normal saline. Immediately after modeling, the mice were put back into the mouse metabolic cages for observation, in which the weight, food intake, water intake and urine output of the mice were measured. The mice were sacrificed 24 hours later for sampling, and urine was collected. […] Then, the serum creatinine in the mice was determined by using the creatinine assay kit from Nanjing Jiancheng, with the results shown in FIG. 23. During sampling, the kidneys on both sides were isolated, the cortex and inner medulla of each kidney were isolated, and the cortex was stored in trizol. When in use, mRNAs in the cortex were extracted using the trizol method, and the mRNA expressions of AKI biomarkers (KIM-1 and NGAL, with the results shown in FIG. 24) and inflammatory factors (IL-1β, IL-18, TNF-α, and MCP-1, with the results shown in FIG. 25) were detected by the Qpcr method. A tissue lysis buffer was added to homogenize the kidneys by ultrasound, the total protein was then extracted, and the inflammatory factors (p-NFκB/NFκB, pro-IL-1β/IL-1β) in the renal cortex tissues were detected by western blotting. The experimental data were statistically analyzed by one-way ANOVA.
The same experimental method was used as that for the alginate disaccharides. The serum creatinine in the mice was determined by using the creatinine assay kit from Nanjing Jiancheng, with the results shown in FIG. 27. During sampling, the kidneys on both sides were isolated, the cortex and inner medulla of each kidney were isolated, and the cortex was stored in trizol. When in use, mRNAs in the cortex were extracted using the trizol method, and the mRNA expressions of AKI biomarkers (KIM-1 and NGAL, with the results shown in FIG. 28) and inflammatory factors (IL-1β, IL-18, TNF-α, and MCP-1, with the results shown in FIG. 29) were detected by the Qpcr method. A tissue lysis buffer was added to homogenize the kidneys by ultrasound, the total protein was then extracted, and the inflammatory factors (p-NFκB/NFκB, pro-IL-IP/IL-1β) in the renal cortex tissues were detected by western blotting. In addition, the animals were sacrificed after the last blood collection, the kidneys were fixed in 4% formaldehyde solution, and subjected to conventional paraffin embedding, sectioning, and HE staining to observe the general kidney tissue morphology under a light microscope. The experimental data were statistically analyzed by one-way ANOVA.
The same experimental method was used as that for the alginate disaccharides and alginate trisaccharides. […] The serum creatinine in the mice was determined by using the creatinine assay kit from Nanjing Jiancheng, with the results shown in FIG. 32. During sampling, the kidneys on both sides were isolated, the cortex and inner medulla of each kidney were isolated, and the cortex was stored in trizol.

[3] = tested on: mice with AKI induced by cisplatin; assay: Mouse acute kidney injury induced by cisplatin
Source text: as §1, with “Cisplatin-induced” for “The”, “injury” for “injury induced by treatment with endotoxin phosphorus lipopolysaccharides”, “drugs that cause nephrotoxicity.” for “clinical infection.”, “cisplatin” for “endotoxin phosphorus lipopolysaccharide”
30 male C57BL/J6 mice of 22-28 grams were selected. Before treatment, the 24-hour urine output was collected and measured without abnormalities. The mice to be modeled were randomly divided into the following groups: a control group, a model group, a model+low-dose administration group (AOS3 at 0.05 g/kg/day), a model+medium-dose administration group (AOS3 at 0.1 g/kg/day), and a model+high-dose administration group (AOS3 at 0.2 g/kg/day), with 6 mice in each group. The alginate trisaccharides was intragastrically administered, and the model group and the control group were all fed by gavage with the same volume of normal saline. Cisplatin was used to induce the drug toxin-associated acute kidney injury. During modeling, each model group was intraperitoneally injected with cisplatin at 20 mg/kg, and the control group was intraperitoneally injected with the same volume of normal saline. Immediately after modeling, the mice were put back into the mouse metabolic cages for observation, during which the weight, food intake, water intake and urine output of the mice were measured (see FIG. 37 for the results). The mice were sacrificed 72 hours later for sampling, and urine was collected. […] Then, the serum creatinine in the mice was determined by using the creatinine assay kit from Nanjing Jiancheng, with the results shown in FIG. 36. During sampling, the kidneys on both sides were isolated, the cortex and inner medulla of each kidney were isolated, and the cortex was stored in trizol. When in use, mRNAs in the cortex were extracted using the trizol method, and the mRNA expressions of AKI biomarkers (KIM-1 and NGAL, with the results shown in FIG. 38) were detected by the Qpcr method. A tissue lysis buffer was added to homogenize the kidneys by ultrasound, the total protein was then extracted, and the inflammatory factors (p-NFκB/NFκB and IL-1β) in the renal cortex tissues were detected by western blotting. The experimental data were statistically analyzed by one-way ANOVA.

[4] = three doses 0.01, 0.05, 0.1 g/kg/day, vs I/R model group
[5] = 0.1 g/kg/day, vs cisplatin model group

Substance | level of serum creatinine ([1]; 0.1 g/kg/day) | level of serum creatinine [1, 4] | 24-hour urine output [1, 4] | mRNA levels of Kim-1 and NGAL in kidney tissues ([1]; vs I/R model group) | inflammatory factors in kidney tissues (TLR4, p-NFκB/NFκB, pro-IL-1β/IL-1β) [1] | level of serum creatinine [2] | gene expressions of inflammatory factors (IL-1β, IL-18, TNF-α, MCP-1) [2] | mRNA levels of Kim-1 and NGAL in kidney tissues [2] | protein expressions of renal inflammatory factors (TLR4, p-NFκB/NFκB, pro-IL-1β/IL-1β) [2] | expressions of inflammatory factors [3, 5] | level of serum creatinine [3, 5] | levels of kidney injury factors (KIM-1 and NGAL) [3, 5] | 24-hour urine output ([1]; 0.1 g/kg/day) | renal histopathological manifestations ([1]; HE staining, 0.1 g/kg/day) | renal histopathological manifestations ([2]; HE staining, LPS+AOS3 group) | level of serum creatinine ([3]; C57BL/J6 mice, cisplatin 20 mg/kg i.p., intragastric 0.05, 0.1, 0.2 g/kg/day, 72 h) | mRNA levels of Kim-1 and NGAL in kidney tissues ([3]; renal cortex, Qpcr, vs cisplatin model group) | protein expressions of renal inflammatory factors (TLR4, p-NFκB/NFκB, IL-1β) ([3]; renal cortex, western blotting, vs cisplatin model group) | urine output ([3]; three doses 0.05, 0.1, 0.2 g/kg/day, 24 h to 72 h, dose dependent)
alginate disaccharide sodium salt [AOS2] | basically return to a normal level | decreased significantly | decreased somewhat | significantly reduced the expressions of both markers | reduced the production of inflammatory factors | decreased significantly and could basically return to a normal level | significantly reduced the production of inflammatory factors | significantly reduced | significantly reduced the production of the inflammatory factors | decreased significantly | decreased significantly | decreased significantly | – | – | – | – | – | – | –
alginate tetrasaccharide sodium salt [AOS4] | restore to a normal level | decreased significantly | somewhat reduced | significantly reduce both markers | significantly reduce the production of inflammatory factors | significantly reduced the serum creatinine | significantly reduced | significantly reduced | significantly inhibited the inflammatory responses of the kidneys | decreased significantly | decreased significantly | decreased significantly | obviously better than that of the mixed saccharides | – | – | – | – | – | –
alginate trisaccharide sodium salt [AOS3] | basically return to a normal level | decreased significantly | somewhat decreased | significantly reduced the expressions of both markers | reduce the production of inflammatory factors | decreased significantly and could basically return to a normal level | significantly reduced the production of inflammatory factors | significantly reduced | significantly reduced the production of the inflammatory factors | decreased significantly | decreased significantly | decreased significantly | basically recovered to the normal level | the renal tubules showed mild lesions | the glomeruli and renal tubules showed mild lesions | decreased significantly and could basically return to a normal level | significantly reduced | significantly reduced the production of the inflammatory factors | first somewhat decreased and then became normal
